# Legend:
# [1] = test system: human multiple myeloma RPMI8226 cells; experiment: Inhibitory activity against human multiple myeloma RPMI8226 cell growth (CellTiter-Glo); type: cell-based; settings: Homo sapiens, RPMI-8226, 192 h, 1 μM test compound, cultured for 8 days; read-out: Percent inhibition of RPMI8226 cell growth (%)
# Outline: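 RPMI8226 cells (300/well) cultured 1 day at 37 °C, 5% CO2, then given compound at 1 μM for 8 days. ATP luminescence (CellTiter-Glo) read; percent inhibition relative to 0.1% DMSO wells.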
# [2] = test system: SW480 human colorectal cancer cells; experiment: Antitumor efficacy in mice bearing SW480 human colorectal cancer cells; type: in vivo, BALB/c female nude mice; settings: oral, 14 days
# Experimental: The compound of the present invention was evaluated for its antitumor efficacy in mice bearing cancer derived from SW480 human colorectal cancer cells by the following method.
# SW480 human colorectal cancer cells were transplanted into 6- to 7-week-old BALB/c female nude mice (CLEA Japan) by subcutaneous injection of 2.0×10^6 cells per mouse. At 7 to 14 days after the transplantation, the size of the engrafted tumor was measured, and the tumor volume was calculated according to the following formula. Tumor volume=major axis×minor axis×minor axis×(½)
# Test subjects having an engrafted tumor with a tumor volume of approximately 100 mm^3 were selected and used in the experiment (6 subjects per group). A suspension of each test compound in a 0.5% methylcellulose solution (Wako Pure Chemical Industries) was orally administered to the mice for 14 days at the dose (mg/kg, indicating the amount per dose) and the number of doses shown in Table 4. On the day before the start of the administration and the day before the completion of the administration, the tumor size was measured, and the tumor volume was calculated.
# Percent tumor growth (T/C (%)) of the test compound administration group relative to the control administration group was calculated according to the following formula. T/C (%)=(tumor volume of the test compound administration group after the completion of the administration−tumor volume of the test compound administration group at the day before the start of the administration)/(tumor volume of the control administration group after the completion of the administration−tumor volume of the control administration group at the day before the start of the administration))×100
# [3] = target: T1, CDK8/CycC (Homo sapiens, UniProt P49336); experiment: CDK8 inhibitory activity (Kinase Tracer-236 / Eu-anti-GST fluorescence assay); type: binding; parameters: Percent inhibition of CDK8 activity (%): concentration or dose not given beside the values; settings: test compound concentration given as '1 1.1.1\4' [sic]
# T1 construct: purchased Carna Biosciences
# T1 sequence (P49336 whole entry): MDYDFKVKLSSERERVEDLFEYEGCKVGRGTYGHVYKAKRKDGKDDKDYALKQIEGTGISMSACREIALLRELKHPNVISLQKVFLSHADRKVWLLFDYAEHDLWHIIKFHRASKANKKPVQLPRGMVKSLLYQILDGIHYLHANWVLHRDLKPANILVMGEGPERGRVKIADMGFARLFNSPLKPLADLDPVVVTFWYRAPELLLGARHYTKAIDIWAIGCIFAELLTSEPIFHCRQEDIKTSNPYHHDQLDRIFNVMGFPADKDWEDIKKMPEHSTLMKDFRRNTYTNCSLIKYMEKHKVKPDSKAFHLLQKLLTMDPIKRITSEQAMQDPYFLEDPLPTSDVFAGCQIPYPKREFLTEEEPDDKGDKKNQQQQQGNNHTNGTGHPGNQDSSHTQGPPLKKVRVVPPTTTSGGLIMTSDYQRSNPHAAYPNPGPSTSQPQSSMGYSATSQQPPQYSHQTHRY
# T1 sequence (P24863 whole entry partner): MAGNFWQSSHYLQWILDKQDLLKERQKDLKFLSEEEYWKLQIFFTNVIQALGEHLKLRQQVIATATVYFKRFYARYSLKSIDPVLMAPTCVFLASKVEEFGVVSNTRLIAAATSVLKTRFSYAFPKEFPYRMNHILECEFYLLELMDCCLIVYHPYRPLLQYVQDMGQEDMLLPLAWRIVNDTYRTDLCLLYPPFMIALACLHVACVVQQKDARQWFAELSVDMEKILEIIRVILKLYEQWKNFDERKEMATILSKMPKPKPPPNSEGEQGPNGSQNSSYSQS
# Outline: (§1)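 Tracer-displacement TR-FRET binding assay: compound with kinase, Eu-cryptate anti-GST antibody and 60 nM Kinase Tracer-236 (pre-dilution level), 1 h at room temperature; ex 320 nm, em 615/665 nm. Percent inhibition is relative to no-compound control and a 10 μM control-compound blank.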
# [4] = target: T2, CDC2L6/CycC (CDK19) (Homo sapiens, UniProt Q9BWU1); experiment: CDK19 inhibitory activity (Kinase Tracer-236 / Eu-anti-GST fluorescence assay); type: binding; parameters: Percent inhibition of CDK19 activity (%): concentration or dose not given beside the values; settings: test compound concentration given as '1 1.1.1\4' [sic]
# T2 construct: purchased Carna Biosciences Inc
# T2 sequence (Q9BWU1 whole entry): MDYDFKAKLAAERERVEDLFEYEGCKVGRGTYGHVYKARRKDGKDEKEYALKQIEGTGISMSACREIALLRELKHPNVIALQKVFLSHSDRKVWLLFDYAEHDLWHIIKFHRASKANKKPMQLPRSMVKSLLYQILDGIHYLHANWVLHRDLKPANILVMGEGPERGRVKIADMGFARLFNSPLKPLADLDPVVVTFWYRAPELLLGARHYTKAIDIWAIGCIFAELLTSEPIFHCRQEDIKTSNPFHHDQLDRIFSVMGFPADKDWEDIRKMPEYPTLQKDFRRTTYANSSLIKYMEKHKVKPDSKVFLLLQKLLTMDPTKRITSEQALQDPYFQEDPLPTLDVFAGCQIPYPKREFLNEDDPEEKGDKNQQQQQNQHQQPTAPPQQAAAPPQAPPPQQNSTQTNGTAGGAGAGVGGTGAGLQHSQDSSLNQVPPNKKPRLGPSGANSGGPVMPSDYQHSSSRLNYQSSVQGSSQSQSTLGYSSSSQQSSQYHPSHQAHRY
# T2 sequence (P24863 whole entry partner): as the sequence (P24863 whole entry partner) above
# Outline: as §1
SMILES,Percent inhibition of CDK8 activity (%) [3] [%],Percent inhibition of CDK19 activity (%) [4] [%],inhibition at 1 µM [1] [%],"T/C (%) ([2]; 5 mg/kg, 1 dose per day)","T/C (%) ([2]; 15 mg/kg, 1 dose per day)","T/C (%) ([2]; 10 mg/kg, 1 dose per day)","T/C (%) ([2]; 15 mg/kg, 2 doses per day)"
"NC(=O)c1ccc(Oc2sc(C(N)=O)c3c2-c2sncc2CC3)cn1 [Example 13, 8-((6-Carbamoylpyridin-3-yl)oxy)-4,5-dihydrothieno[3,4-g][1,2]benzothiazole-6-carboxamide]",97,98,69,–,50,–,–
"COCCNC(=O)c1ccc(Oc2sc(C(N)=O)c3c2-c2sncc2CC3)cn1 [Example 18, 8-((6-((2-Methoxyethyl)carbamoyl)pyridin-3-yl)oxy)-4,5-dihydrothieno[3,4-g][1,2]benzothiazole-6-carboxamide]",103,100,63,–,–,30,–
"Cc1nc(C(=O)NCC(C)(C)O)ccc1Oc1sc(C(N)=O)c2c1-c1sncc1CC2 [Example 24, 8-((6-((2-Hydroxy-2-methylpropyl)carbamoyl)-2-methylpyridin-3-yl)oxy)-4,5-dihydrothieno[3,4-g][1,2]benzothiazole-6-carboxamide]",102,99,64,–,–,32,–

# Continued, in another order:
Percent inhibition of CDK8 activity (%) [3] [%],Percent inhibition of CDK19 activity (%) [4] [%],SMILES,inhibition at 1 µM [1] [%],"T/C (%) ([2]; 5 mg/kg, 1 dose per day)","T/C (%) ([2]; 15 mg/kg, 1 dose per day)","T/C (%) ([2]; 10 mg/kg, 1 dose per day)","T/C (%) ([2]; 15 mg/kg, 2 doses per day)"
97,98,"Cc1c(Oc2sc(C(N)=O)c3c2-c2sncc2CC3)ccc[n+]1[O-] [Example 9, 8-((2-Methyl-1-oxidopyridin-3-yl)oxy)-4,5-dihydrothieno[3,4-g][1,2]benzothiazole-6-carboxamide]",63,30,–,–,–
107,100,"Cc1nn(C)c(C)c1Oc1sc(C(N)=O)c2c1-c1sncc1CC2 [Example 32, 8-((1,3,5-Trimethyl-1H-pyrazol-4-yl)oxy)-4,5-dihydrothieno[3,4-g][1,2]benzothiazole-6-carboxamide]",63,–,–,–,36
